Values after ≈ are worked out from the molar mass of the structure shown.
Experiments:
Experiment in all cases: Bacterial growth minimal inhibitory concentration (CLSI broth microdilution)
Assay type in all cases: cell-based
P. aeruginosa ATCC27853 = conditions: quinolone-sensitive strain, cation-adjusted Mueller-Hinton Broth; for MIC: Pseudomonas aeruginosa, ATCC27853
Method in brief: (§1)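 Cation-adjusted Mueller-Hinton broth; microdilution per CLSI M7-A7; MIC read in mg/L. Strains: K. pneumoniae A-651 (multiply resistant, quinolone-resistant); E. coli ATCC25922 and P. aeruginosa ATCC27853 (quinolone-sensitive).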

K. pneumoniae A-651 = conditions: multiply resistant strain (in particular quinolone-resistant), cation-adjusted Mueller-Hinton Broth; for MIC: Klebsiella pneumoniae, A651
Method in brief: as §1

E. coli ATCC25922 = conditions: quinolone-sensitive strain, cation-adjusted Mueller-Hinton Broth; for MIC: Escherichia coli, ATCC25922
Method in brief: as §1

Row | MIC (P. aeruginosa ATCC27853) | MIC (K. pneumoniae A-651) | MIC (E. coli ATCC25922) | MIC for P. aeruginosa ATCC27853 (P. aeruginosa ATCC27853) | MIC for K. Pneumoniae A-651 (K. pneumoniae A-651) | MIC for E. coli ATCC25922 (E. coli ATCC25922) | SMILES
1 | 1 mg/L (≈ 1.99 µM) | 0.25 mg/L (≈ 0.497 µM) | 0.125 mg/L (≈ 0.249 µM) | – | – | – | CN1CC(F)(c2ccc(C#Cc3cc4n(c3)C(=O)N(CC[C@](C)(C(=O)NO)S(C)(=O)=O)C4)cc2)C1 [Example 20, (2R)-4-(6-((4-(3-fluoro-1-methylazetidin-3-yl)phenyl)ethynyl)-3-oxo-1H-pyrrolo[1,2-c]imidazol-2(3H)-yl)-N-hydroxy-2-methyl-2-(methylsulfonyl)butanamide]
2 | 0.5 mg/L (≈ 1.02 µM) | 0.5 mg/L (≈ 1.02 µM) | 0.25 mg/L (≈ 0.512 µM) | – | – | – | C[C@@](CCN1Cc2cc(C#CC#CC3CN(C4CC(O)C4)C3)cn2C1=O)(C(=O)NO)S(C)(=O)=O (stereo partly drawn) [Example 69, (2R)—N-hydroxy-4-(6-((1-(3-hydroxycyclobutyl)azetidin-3-yl)buta-1,3-diyn-1-yl)-3-oxo-1H-pyrrolo[1,2-c]imidazol-2(3H)-yl)-2-methyl-2-(methylsulfonyl)butanamide]
3 | 2 mg/L (≈ 3.98 µM) | 1 mg/L (≈ 1.99 µM) | 0.5 mg/L (≈ 0.995 µM) | – | – | – | CN1CC(C#Cc2ccc(-c3cc4n(c3)C(=O)N(CC[C@](C)(C(=O)NO)S(C)(=O)=O)C4)c(F)c2)C1 [Example 84, (2R)-4-(6-(2-fluoro-4-((1-methylazetidin-3-yl)ethynyl)phenyl)-3-oxo-1H-pyrrolo[1,2-c]imidazol-2(3H)-yl)-N-hydroxy-2-methyl-2-(methylsulfonyl)butanamide]
4 | 0.5 mg/L (≈ 1.08 µM) | 1 mg/L (≈ 2.16 µM) | 0.25 mg/L (≈ 0.539 µM) | – | – | – | C[C@@](CCN1Cc2cc(C#CC#C[C@H]3C[C@@H]3[C@@H](O)CO)cn2C1=O)(C(=O)NO)S(C)(=O)=O [Example 56, (2R)-4-(6-(((1S,2S)-2-((R)-1,2-dihydroxyethyl)cyclopropyl)buta-1,3-diyn-1-yl)-3-oxo-1H-pyrrolo[1,2-c]imidazol-2(3H)-yl)-N-hydroxy-2-methyl-2-(methylsulfonyl)butanamide]
5 | 2 mg/L (≈ 3.85 µM) | 1 mg/L (≈ 1.92 µM) | 1 mg/L (≈ 1.92 µM) | – | – | – | CN1CCN(C(=O)OCC#CC#Cc2cc3n(c2)C(=O)N(CC[C@](C)(C(=O)NO)S(C)(=O)=O)C3)CC1 [Example 50, (3R)-5-(2-(4-(hydroxyamino)-3-methyl-3-(methylsulfonyl)-4-oxobutyl)-3-oxo-2,3-dihydro-1H-pyrrolo[1,2-c]imidazol-6-yl)penta-2,4-diyn-1-yl 4-methylpiperazine-1-carboxylate]
6 | 1 mg/L (≈ 1.84 µM) | 1 mg/L (≈ 1.84 µM) | 1 mg/L (≈ 1.84 µM) | – | – | – | C[C@@](CCN1Cc2cc(C#Cc3ccc([C@H](O)CN4CCOCC4)cc3)cn2C1=O)(C(=O)NO)S(C)(=O)=O (single isomer, unassigned) [Example 2]
7 | 0.5 mg/L (≈ 1.15 µM) | 0.5 mg/L (≈ 1.15 µM) | 0.5 mg/L (≈ 1.15 µM) | – | – | – | [2H]C([2H])S(=O)(=O)[C@](C)(CCN1Cc2cc(C#CC#CC3CN(C)C3)cn2C1=O)C(=O)NO [Example 80, (2R)—N-hydroxy-2-methyl-2-((methyl-d2)sulfonyl)-4-(6-((1-methylazetidin-3-yl)buta-1,3-diyn-1-yl)-3-oxo-1H-pyrrolo[1,2-c]imidazol-2(3H)-yl)butanamide]
8 | 0.5 mg/L (≈ 1.12 µM) | 0.5 mg/L (≈ 1.12 µM) | 0.5 mg/L (≈ 1.12 µM) | – | – | – | CN(C)C1(C#CC#Cc2cc3n(c2)C(=O)N(CC[C@](C)(C(=O)NO)S(C)(=O)=O)C3)CC1 [Example 21, (2R)-4-(6-((1-(dimethylamino)cyclopropyl)buta-1,3-diyn-1-yl)-3-oxo-1H-pyrrolo[1,2-c]imidazol-2(3H)-yl)-N-hydroxy-2-methyl-2-(methylsulfonyl)butanamide]
9 | 1 mg/L (≈ 2.12 µM) | 0.125 mg/L (≈ 0.265 µM) | 0.125 mg/L (≈ 0.265 µM) | – | – | – | C[C@@](CCN1Cc2cc(C#CC#CC3CN(C4CCC4)C3)cn2C1=O)(C(=O)NO)S(C)(=O)=O [Example 62, (2R)-4-(6-((1-cyclobutylazetidin-3-yl)buta-1,3-diyn-1-yl)-3-oxo-1H-pyrrolo[1,2-c]imidazol-2(3H)-yl)-N-hydroxy-2-methyl-2-(methylsulfonyl)butanamide]
10 | 0.5 mg/L (≈ 1.16 µM) | 0.25 mg/L (≈ 0.578 µM) | 0.063 mg/L (≈ 0.146 µM) | – | – | – | CNC1(C#CC#Cc2cc3n(c2)C(=O)N(CC[C@](C)(C(=O)NO)S(C)(=O)=O)C3)CC1 [Example 38, (2R)—N-hydroxy-2-methyl-4-(6-((1-(methylamino)cyclopropyl)buta-1,3-diyn-1-yl)-3-oxo-1H-pyrrolo[1,2-c]imidazol-2(3H)-yl)-2-(methylsulfonyl)butanamide]
11 | 2 mg/L (≈ 3.84 µM) | 2 mg/L (≈ 3.84 µM) | 0.5 mg/L (≈ 0.96 µM) | – | – | – | C[C@@](CCN1Cc2cc(C#CC#CC3(F)CCN(C4COC4)CC3)cn2C1=O)(C(=O)NO)S(C)(=O)=O [Example 47, (2R)-4-(6-((4-fluoro-1-(oxetan-3-yl)piperidin-4-yl)buta-1,3-diyn-1-yl)-3-oxo-1H-pyrrolo[1,2-c]imidazol-2(3H)-yl)-N-hydroxy-2-methyl-2-(methylsulfonyl)butanamide]
12 | 2 mg/L (≈ 4.08 µM) | 0.125 mg/L (≈ 0.255 µM) | 0.063 mg/L (≈ 0.128 µM) | – | – | – | C[C@@](CCN1Cc2cc(C#CC#CC3CN(C4CSC4)C3)cn2C1=O)(C(=O)NO)S(C)(=O)=O [Example 75, (2R)—N-hydroxy-2-methyl-2-(methylsulfonyl)-4-(3-oxo-6-((1-(thietan-3-yl)azetidin-3-yl)buta-1,3-diyn-1-yl)-1H-pyrrolo[1,2-c]imidazol-2(3H)-yl)butanamide]
13 | – | – | – | 1 mg/L | 0.5 mg/L | 0.5 mg/L | C[C@@](CCN1Cc2cc(C#CC#CC3CN(C4CC(O)C4)C3)cn2C1=O)(C(=O)NO)S(C)(=O)=O (stereo partly drawn) [Example 90, (2R)—N-hydroxy-4-(6-((1-((1r,3r)-3-hydroxycyclobutyl)azetidin-3-yl)buta-1,3-diyn-1-yl)-3-oxo-1H-pyrrolo[1,2-c]imidazol-2(3H)-yl)-2-methyl-2-(methylsulfonyl)butanamide]
14 | 0.5 mg/L (≈ 1.05 µM) | 1 mg/L (≈ 2.1 µM) | 0.25 mg/L (≈ 0.525 µM) | – | – | – | C[C@@](CCN1Cc2cc(C#CC#CC3CN(CCCO)C3)cn2C1=O)(C(=O)NO)S(C)(=O)=O [Example 64, (2R)—N-hydroxy-4-(6-((1-(3-hydroxypropyl)azetidin-3-yl)buta-1,3-diyn-1-yl)-3-oxo-1H-pyrrolo[1,2-c]imidazol-2(3H)-yl)-2-methyl-2-(methylsulfonyl)butanamide]
15 | 2 mg/L (≈ 3.49 µM) | 1 mg/L (≈ 1.75 µM) | 0.25 mg/L (≈ 0.437 µM) | – | – | – | C[C@@](CCN1Cc2cc(C#Cc3ccc(COC(=O)N4CCC(O)CC4)cc3)cn2C1=O)(C(=O)NO)S(C)(=O)=O [Example 5, (3R)-4-((2-(4-(hydroxyamino)-3-methyl-3-(methylsulfonyl)-4-oxobutyl)-3-oxo-2,3-dihydro-1H-pyrrolo[1,2-c]imidazol-6-yl)ethynyl)benzyl 4-hydroxypiperidine-1-carboxylate]
16 | 2 mg/L (≈ 3.98 µM) | 1 mg/L (≈ 1.99 µM) | 0.5 mg/L (≈ 0.995 µM) | – | – | – | C[C@@](CCN1Cc2cc(C#CC#CC3CCN(C4COC4)CC3)cn2C1=O)(C(=O)NO)S(C)(=O)=O [Example 35, (2R)—N-hydroxy-2-methyl-2-(methylsulfonyl)-4-(6-((1-(oxetan-3-yl)piperidin-4-yl)buta-1,3-diyn-1-yl)-3-oxo-1H-pyrrolo[1,2-c]imidazol-2(3H)-yl)butanamide]
17 | 0.25 mg/L (≈ 0.56 µM) | 0.5 mg/L (≈ 1.12 µM) | 0.25 mg/L (≈ 0.56 µM) | – | – | – | C[C@@H]1[C@@H](C#CC#Cc2cc3n(c2)C(=O)N(CC[C@](C)(C(=O)NO)S(C)(=O)=O)C3)CN1C [Example 93, (2R)-4-(6-(((2R,3S)-1,2-dimethylazetidin-3-yl)buta-1,3-diyn-1-yl)-3-oxo-1H-pyrrolo[1,2-c]imidazol-2(3H)-yl)-N-hydroxy-2-methyl-2-(methylsulfonyl)butanamide]
18 | 0.5 mg/L (≈ 1.15 µM) | 0.5 mg/L (≈ 1.15 µM) | 0.5 mg/L (≈ 1.15 µM) | – | – | – | [2H]CN1CC(C#CC#Cc2cc3n(c2)C(=O)N(CC[C@](C)(C(=O)NO)S(C)(=O)=O)C3)C1 [Example 60, (2R)—N-hydroxy-2-methyl-4-(6-((1-(methyl-d)azetidin-3-yl)buta-1,3-diyn-1-yl)-3-oxo-1H-pyrrolo[1,2-c]imidazol-2(3H)-yl)-2-(methylsulfonyl)butanamide]
19 | 1 mg/L (≈ 2.06 µM) | 1 mg/L (≈ 2.06 µM) | 0.5 mg/L (≈ 1.03 µM) | – | – | – | CN1CC(C#Cc2ccc(-c3cc4n(c3)C(=O)N(CC[C@](C)(C(=O)NO)S(C)(=O)=O)C4)cc2)C1 [Example 85, (2R)—N-hydroxy-2-methyl-4-(6-(4-((1-methylazetidin-3-yl)ethynyl)phenyl)-3-oxo-1H-pyrrolo[1,2-c]imidazol-2(3H)-yl)-2-(methylsulfonyl)butanamide]
20 | 4 mg/L (≈ 8.69 µM) | 2 mg/L (≈ 4.34 µM) | 2 mg/L (≈ 4.34 µM) | – | – | – | CCC1(C#CC#Cc2cc3n(c2)C(=O)N(CC[C@](C)(C(=O)NO)S(C)(=O)=O)C3)CN(C)C1 [Example 79, (2R)-4-(6-((3-ethyl-1-methylazetidin-3-yl)buta-1,3-diyn-1-yl)-3-oxo-1H-pyrrolo[1,2-c]imidazol-2(3H)-yl)-N-hydroxy-2-methyl-2-(methylsulfonyl)butanamide]
21 | 1 mg/L (≈ 2.17 µM) | 2 mg/L (≈ 4.34 µM) | 1 mg/L (≈ 2.17 µM) | – | – | – | CC(=O)N1CC(C#CC#Cc2cc3n(c2)C(=O)N(CC[C@](C)(C(=O)NO)S(C)(=O)=O)C3)C1 [Example 32, (2R)-4-(6-((1-acetylazetidin-3-yl)buta-1,3-diyn-1-yl)-3-oxo-1H-pyrrolo[1,2-c]imidazol-2(3H)-yl)-N-hydroxy-2-methyl-2-(methylsulfonyl)butanamide]
22 | 1 mg/L (≈ 2.09 µM) | 1 mg/L (≈ 2.09 µM) | 0.5 mg/L (≈ 1.04 µM) | – | – | – | CN1CCC(F)(C#CC#Cc2cc3n(c2)C(=O)N(CC[C@](C)(C(=O)NO)S(C)(=O)=O)C3)CC1 [Example 46, (2R)-4-(6-((4-fluoro-1-methylpiperidin-4-yl)buta-1,3-diyn-1-yl)-3-oxo-1H-pyrrolo[1,2-c]imidazol-2(3H)-yl)-N-hydroxy-2-methyl-2-(methylsulfonyl)butanamide]

— patent US10314823B2, “Substituted 1,2-dihydro-3H-pyrrolo[1,2-c]imidazol-3-one antibacterial compounds” (IDORSIA PHARMACEUTICALS LTD, priority 2015, dated 2019)
